pKi: −log10 of the molar value.
Legend:
mice = assay: in vivo; conditions: p.o., 24 hours after administration, male ddY mice; 1440 min
Protocol: (§1) By using male ddY-strain 5-week old mice (3 to 4 per group), the compounds of general formula (1) were each administered orally or intraperitoneally as a solution in saline or as a suspension in methyl cellulose, and 24 hours after the administration, the toxicity of the compounds was evaluated.

atrial fibrillation = assay: Atrial fibrillation model; type: in vivo, mongrel dog; conditions: dose of 0.3 to 3 mg/kg or 1 to 10 mg/kg
Description: Furthermore, the anaethetized dog was cut open at the chest. Bipolar electrodes were sutured to the right atrial surface, and stimulation electrodes were attached to the vagus nerves at both sides of the cervical region. Atrial fibrillation was induced by the method of Goldberger et al. A. L. Goldberger et al.: […] Further, the anaethetized dog was cut open at the chest. Left anterior descending coronary artery was ligated, and ninety minutes later, reperfused to prepare a myocardial infarction which was liable to develop tachycardia. At that time, a bipolar plunge electrode was placed in the interventricular septum near the ligated site. Several days after the operation, programmed electrical stimulation was applied to induce tachycardia. The effect of the drug to cause disappear of tachycardia was examined. In an anaethetized and open-chested mongrel dog, bipolar electrodes (silver and silver-silver chloride electrodes) were sutured respectively to the right atrium for stimulation and recording. The vagus nerves on both sides of the cervical region were isolated and cut, and stimulation electrodes were attached to the peripheral end. The atrial fibrillation was induced in accordance with the method of Goldberger et al. After cardiac arrest induced by stimulating the vagus nerves, electrical stimulation was applied to the right atria at a high frequency.

[1] = system: right ventricle (effective refractory period); assay: Activity on ERP of the right ventricle; type: in vivo, adult mongrel dog; conditions: Canis lupus familiaris, iv, ERP before drug = 100%, read-out: ERP % (ERP prolonging activity)
Summary of the method: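 Anaesthetized open-chest mongrel dogs, right ventricle paced at 400 msec interval (4 msec, twice diastolic threshold) after alcohol ablation of sinus pacemaker. ERP defined by loss of response to first stimulus of a 10-stimulus train; drug given intravenously or intraduodenally, ERP expressed as % of pre-dose.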

Purkinje fiber = assay: Effect on APD (APD75, field-stimulated right ventricular free wall); type: cell-based, adult mongrel dog; conditions: Canis lupus familiaris, purkinje, 20 min, 20 minutes incubation, 37° C., 1 Hz, control before drug = 100%, read-out: APD75 % (percent change in APD75)
Summary of the method: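 Right ventricular free wall from pentobarbital-anaesthetized adult mongrel dog, held in Tyrode's solution at 37° C. with 1 Hz field stimulation. Purkinje fiber action potentials recorded by intracellular glass microelectrodes; APD75 measured after 20 minutes drug perfusion, expressed as percent change versus pre-drug control (100%).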

serotonine 2 receptor = biological target: T1, serotonine 2 receptor (Rattus norvegicus, UniProt P14842); assay: [3H]ketanserin binding assay (affinity for serotonine 2 receptor); design: species or system Wistar male rat; conditions: rat frontal cortex, 1 nM [3H] ketanserin, 37° C., 10 minutes
T1 construct: frontal cortex fraction prepared from the brain of a Wistar male rat; from tissue; host or cells: rat brain frontal cortex (Wistar, male), membrane fraction
T1 sequence (P14842 whole entry): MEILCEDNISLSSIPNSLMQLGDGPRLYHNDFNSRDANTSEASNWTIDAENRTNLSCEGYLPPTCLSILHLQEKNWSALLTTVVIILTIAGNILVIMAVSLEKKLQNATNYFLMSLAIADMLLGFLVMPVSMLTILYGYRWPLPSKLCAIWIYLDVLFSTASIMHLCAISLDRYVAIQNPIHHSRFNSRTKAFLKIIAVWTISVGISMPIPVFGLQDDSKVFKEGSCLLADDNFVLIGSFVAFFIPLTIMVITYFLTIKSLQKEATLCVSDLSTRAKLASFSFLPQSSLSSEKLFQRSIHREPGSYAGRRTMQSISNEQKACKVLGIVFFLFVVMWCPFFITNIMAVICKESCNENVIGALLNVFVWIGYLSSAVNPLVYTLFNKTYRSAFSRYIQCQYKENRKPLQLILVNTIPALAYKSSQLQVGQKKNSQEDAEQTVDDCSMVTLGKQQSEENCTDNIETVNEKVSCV
Protocol: (§2) Striatal membranes fractions were prepared from a rat brain, and the affinity of the compounds of this invention on dopamine 2 receptors was determined by using [^3 H] spiperone assay from membranes fractions as an index. Moreover, frontal cortex membranes were prepared from a rat brain, and the affinity of the test drugs on serotonine 2 receptor was determined by using [^3 H] ketenserin binding assay. It was shown that the compounds of general formula (1) of the invention have marked anti-dopamine activity and anti-serotonine activity.
[^3 H] ketanserin binding assay
The affinity of the compound of the invention was determined on the basis of the ability to substitute [^3 H] ketanserin from a frontal cortex fraction prepared from the brain of a Wistar male rat.
(§3) The rat was decapitated, and the brain was obtained. The frontal cortex was homogenized in 40 volumes of 50 mM Tris-HCl buffer (pH 7.6), and then centrifuged. The pellets were again homogenized in 100 volumes of the same buffer, and used in a binding test. The binding test was conducted by the following procedure.
(§4) The frontal cortex (original tissue weight 1 mg/ml), 100 microliters of a test drug and 1 nM of [^3 H] ketanserin were incubated at 37° C. for 10 minutes in 50 mM Tris-HCl buffer (pH 7.6). Then, the reaction mixture was suction-filtered through a glass fiber filter (Watmann GF/B) and washed with a buffer three times.
(§5) The filter was put in a scintillation cocktail (ACSII, Amersham Co.), and after mixing, left to stand overnight. The radioactivity held on the filter was measured by a liquid scintillation counter. The nonspecific binding was measured in the presence of 1 μM of methysergide. The concentration of the test drug which inhibited 50% of a specific binding was determined from the graph and defined as IC5. Ki was calculated from the following equation. [formula]

in vivo = conditions: mouse, in vivo, po
Protocol: as §1

[2] = system: Apomorphine-induced climbing of mice; assay: Apomorphine-induced climbing (anti-DA activity); type: in vivo, ddY-strain male mice
Description: (§6) The effects of the compounds of general formula (1) on the apomorphine-induced climbing behavior of mice (i.e. anti-dopamine activity) and the effects of the test drugs of the invention on the quipazine-induced head twitching of mice (i.e. anti-serotonine activity) were also examined. It was made clear that the compounds of this invention represented by general formula (1) have marked anti-dopamine activity and anti-serotonine activity both in vivo and in vitro, and have potentiality as an anti-psychotic agent, an anti-depressant, an antianxiety agent, a sedative or as an anti-dementia agent.
(§7) By using 5 week old ddY-strain male mice (10 per group), the anti-dopamine (anti-DA hereinafter) and anti-serotonine (anti-5-HT hereinafter) activities were examined by the following procedures. All does of test drugs were adjusted to 1 mg/ml. They were each suspended in 0.5% carboxymethyl cellulose (CMC)/saline so that their volume administered was 0.1 ml/10 g. The suspension was administered intraperitoneally.
1. Effect of apomorphine on the climbing behavior (anti-DA activity):
Apomorphine (3 mg/kg) was subcutaneously administered 30 minutes after the intraperitoneal administration of each test drug, and 20 minutes later, the climbing time of each mouse was measured.

dopamine 2 receptor = biological target: T2, dopamine 2 receptor (Rattus norvegicus, UniProt P61169); assay: [3H]spiperone binding assay (affinity for dopamine 2 receptor); design: species or system Wistar-strain male rat; conditions: rat striatal membranes, 0.5 nM [3H] spiperone, 37° C., 10 minutes
T2 construct: membrane fractions prepared from the brain a Wistarstrain male rat; from tissue; host or cells: rat brain striatum (Wistar, male), membrane fraction
T2 sequence (P61169 whole entry): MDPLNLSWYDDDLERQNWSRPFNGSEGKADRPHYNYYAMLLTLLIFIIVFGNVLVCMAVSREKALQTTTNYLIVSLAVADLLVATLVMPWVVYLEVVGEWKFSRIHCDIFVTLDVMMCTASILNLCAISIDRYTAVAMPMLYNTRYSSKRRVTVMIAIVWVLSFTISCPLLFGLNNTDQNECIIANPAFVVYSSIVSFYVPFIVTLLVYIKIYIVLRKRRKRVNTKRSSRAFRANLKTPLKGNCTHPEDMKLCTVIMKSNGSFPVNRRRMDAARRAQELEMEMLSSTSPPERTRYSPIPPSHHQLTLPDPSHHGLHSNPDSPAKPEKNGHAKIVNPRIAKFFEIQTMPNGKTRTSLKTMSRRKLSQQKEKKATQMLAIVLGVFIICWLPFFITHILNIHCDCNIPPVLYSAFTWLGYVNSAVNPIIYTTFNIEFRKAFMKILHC
Protocol: as §2
[^3 H]spiperone binding assay
The affinity of the compounds of this invention to the dopamine 2 receptor was determined on the basis of the ability to substitute [^3 H] spiperone from stratal membrane fractions prepared from the brain a Wistarstrain male rat.
as §3, with “striatum” for “frontal cortex”, “50” for “100”
as §4, with “The stria” for “The frontal cortex”, “weight 20” for “weight 1”, “and 0.5” for “and 1”, “H] spiperone” for “H] ketanserin”
as §5, with “(+) butaclamol.” for “methysergide.”, “IC50.” for “IC5.”

[3] = system: Quipazine-induced head twitching of mice; assay: Quipazine-induced head twitching (anti-5-HT activity); type: in vivo, ddY-strain male mice
Description: as §6, §7
2. Effect of quipazine on the head twitch (anti-5-HT activity):
Quipazine (3 mg/kg) was administered intraperitoneally 30 minutes after the intraperitoneal administration of each test drug. After the lapse of 10 minutes, 20 minutes and 30 minutes from then, the number of head twitchings of each mouse which occurred for 2 minutes was counted.

O=C1COc2cc(OCCCN3CCC(c4ccccc4)CC3)ccc21 [Compound 1139]
LD50 p.o. (mice): > 1,000 mg/kg
disappearance of atrial fibrillation (atrial fibrillation): could cause disappearance fibrillation
change in vivo at 0.3 mg/kg ([1]; 0.3 mg/kg i.v.): 5%
change in vivo at 1 mg/kg ([1]; 1 mg/kg i.v.): 11%
activation at 1 µg/mL (Purkinje fiber; dose 1 μg/ml): 33%
activation at 3 µg/mL (Purkinje fiber; dose 3 μg/ml): 55%
activation at 10 µg/mL (Purkinje fiber; dose 10 μg/ml): 65%

O=C1COc2cc(OCCCN3CCC(c4ccccc4)CC3)ccc21 [Compound 1140]
LD50 p.o. (mice): > 300 mg/kg

O=C1COc2cc(OCCCN3CCC(C(=O)c4ccc(F)cc4)CC3)ccc21 [Compound 1236]
pKi (serotonine 2 receptor): 8.04
LD50 at 24 h (in vivo): < 300 mg/kg
Percent inhibition of apomorphine-induced climbing ([2]; 1 mg/kg i.p.): 56%
Apomorphine-induced climbing (mean ± S.E.) ([2]; 1 mg/kg i.p., control 72.9 ± 8.5, **p < 0.01): 32.0 ± 8.6 sec/2 min.
effect on apomorphine-induced climbing behavior / anti-dopamine activity (in words) ([2]; in vivo, mice): significantly inhibited the apomorphine-induced climbing behavior
pKi (dopamine 2 receptor): 6.91
Percent inhibition of quipazine-induced head twitching ([3]; 1 mg/kg i.p.): 99%
Quipazine-induced head twitching ([3]; 1 mg/kg i.p., control 6.7 ± 0.8, **p < 0.05, ***p < 0.001): 0.1 ± 0.1 number/2 min.
effect on quipazine-induced head twitching / anti-serotonine activity (in words) ([3]; in vivo, mice): significantly inhibited the apomorphine-induced climbing behavior and quipazine-induced head twitching
